Experimental data published in patent publication US7858349B2, “Anti-cancer compounds” (The Regents of the University of Colorado, priority 1999, dated 2010).

Assays:
SCLC strain SHP-77 = assay: MTT assay for cell survival, SCLC SHP-77 in vitro; format: cell-based, human; details: ED50 for killing of SCLC strain SHP-77 in vitro, 4 days, 0 = no detectable activity, read-out: SCLC SHP-77 IC50
NSCLC strain A-549 = assay: MTT assay for cell survival, NSCLC A-549 in vitro; format: cell-based, human; details: ED50 for killing of NSCLC strain A-549 in vitro, 4 days
PC3 PC cells = assay: Inhibition of PC3 tumor growth in vivo in nude mice; design: species or system athymic nude mice; key to PC3 In vivo % inhib.: an IC50 value of “0” represents no detectable anti-cancer activity for a drug in a given cell line; “Stim.” indicates the observation of a stimulatory activity on the growth of the cancer cell line; details: percent inhibition of tumor growth in nude mice; prostate cancer; i.p. 5 mg/kg/every second day or 10 mg/kg/every fourth day
Protocol: Compounds having high in vitro cytotoxic activity were tested against implanted tumors in vivo. Athymic nude mice were implanted subcutaneously with suspensions (2 million SHP-77 SCLC cells, 1 million A549 NSCLC cells or 1.5 million PC3 PC cells) in Matrigel suspension. On the eighth day after tumor implantation groups of 5 mice bearing implants were injected intraperitoneally with the compounds being tested at 5 mg/kg/every second day or at 10 mg/kg/every fourth day; control animals were injected with an equal volume of isotonic saline. Less soluble compounds were initially dissolved in dimethyl sulfoxide (DMSO) and diluted with medium. In those cases the control injections contained the same concentration of DMSO. Tumor size was measured with a caliper three times per week. Tumor volume was calculated by the formula: Volume(cc)=3.14×(length)×(width)^2/6 At autopsy tumors were removed and weighed. Tumor inhibition was calculated on both weight and measurement basis. In each Table, an IC50 value of “0” represents no detectable anti-cancer activity for a drug in a given cell line and “Stim.” indicates the observation of a stimulatory activity on the growth of the cancer cell line.

Row | Compound | IC50 (SCLC strain SHP-77) [µM] | IC50 (NSCLC strain A-549) [µM] | PC3 In vivo % inhib. (PC3 PC cells)
1 | CC1(C)CC(NC(=O)C(Cc2ccc(-c3ccccc3)cc2)NC(=O)C(c2ccc(Cl)cc2)c2ccc(Cl)cc2)CC(C)(C)N1 (stereo not drawn) [Analog M-1274, Bcpa-Bip-Atmp] | 2.1 | 7.3 | 
2 | O=C(C=Cc1c(F)c(F)c(F)c(F)c1F)NC(Cc1ccc(I)cc1)C(=O)NC1CN2CCC1CC2 [Analog M-1290, F5c-PIF-(S)-(−)-Aqu] |  | 14 | 
3 | O=C(C=Cc1c(F)c(F)c(F)c(F)c1F)NC(Cc1ccc(-c2ccccc2)cc1)C(=O)NC1CN2CCC1CC2 [Analog M-1292, F5c-Bip-(S)-(−)-Aqu] |  | 9.8 | 
4 | O=C(C=Cc1c(F)c(F)c(F)c(F)c1F)NC(Cc1ccc(I)cc1)C(=O)N1CCN(c2ccc(Cl)cc2)CC1 (stereo not drawn) [Analog M-1298, F5c-PIF-Cpp] |  | 21 | 
5 | O=C(C=Cc1c(F)c(F)c(F)c(F)c1F)NC(Cc1ccc(I)cc1)C(=O)N1CCN(C(c2ccccc2)c2ccc(Cl)cc2)CC1 (stereo not drawn) [Analog M-1300, F5c-PIF-Cbp] |  | 21 | 
6 | O=C(C=Cc1c(F)c(F)c(F)c(F)c1F)NC(Cc1ccc(I)cc1)C(=O)N1CCN(CCc2ccccc2)CC1 (stereo not drawn) [Analog M-1304, F5c-PIF-Pep] |  | 17 | 
7 | O=C(C=Cc1c(F)c(F)c(F)c(F)c1F)NC(Cc1ccc(I)cc1)C(=O)N1CCN(CCCc2ccccc2)CC1 (stereo not drawn) [Analog M-1308, F5c-PIF-Ppp] |  | 14 | 
8 | O=C(C=Cc1c(F)c(F)c(F)c(F)c1F)NC(Cc1ccc(I)cc1)C(=O)N1CCN(CC2CCCCC2)CC1 (stereo not drawn) [Analog M-1314, F5c-PIF-Chmp] |  | 21 | 
9 | C=CCN1CCN(C(=O)C(Cc2ccc(I)cc2)NC(=O)C=Cc2c(F)c(F)c(F)c(F)c2F)CC1 (stereo not drawn) [Analog M-1316, F5c-PIF-Alp] |  | 20 | 
10 | C=CCN(CC=C)CCN1CCN(C(=O)C(Cc2ccc(I)cc2)NC(=O)C=Cc2c(F)c(F)c(F)c(F)c2F)CC1 (stereo not drawn) [Analog M-1318, F5c-PIF-Daep] |  | 8.4 | 
11 | N#Cc1ccc(N2CCN(C(=O)C(Cc3ccc(I)cc3)NC(=O)C=Cc3c(F)c(F)c(F)c(F)c3F)CC2)cc1 (stereo not drawn) [Analog M-1320, F5c-PIF-4-Cypp] |  | 17 | 
12 | COc1ccc2c(c1)c(CC(=O)NC(Cc1ccc(OCc3c(Cl)cccc3Cl)cc1)C(=O)N1CC(C)N(Cc3ccccc3)C(C)C1)c(C)n2C(=O)c1ccc(Cl)cc1 (stereo not drawn) [Analog M-1560, Indo-OC2Y-cDmbp] | > 60 |  | Stim.
13 | COc1ccc2c(c1)c(CC(=O)N[C@@H](Cc1ccc(OCc3c(Cl)cccc3Cl)cc1)C(=O)N1CCN(c3ncccn3)CC1)c(C)n2C(=O)c1ccc(Cl)cc1 [Analog M-1562, Indo-OC2Y-Pmpz] | > 60 |  | 2%
14 | COc1ccc2c(c1)c(CC(=O)N[C@@H](Cc1ccc(OCc3c(Cl)cccc3Cl)cc1)C(=O)N1CCN(C/C=C/c3ccccc3)CC1)c(C)n2C(=O)c1ccc(Cl)cc1 [Analog M-1566, Indo-OC2Y-tCip] | > 60 |  | 57%
15 | Cc1onc(-c2ccccc2Cl)c1C(=O)N[C@@H](Cc1ccc(OCc2c(Cl)cccc2Cl)cc1)C(=O)NC1CC(C)(C)NC(C)(C)C1 [Analog M-1568, Cmioc-OC2Y-Atmp] | 3.6 |  | Stim.
16 | CC1(C)CC(NC(=O)C(Cc2ccc(OCc3c(Cl)cccc3Cl)cc2)NC(=O)C=CC(=O)c2ccccc2)CC(C)(C)N1 (stereo not drawn) [Analog M-1576, Bzac-OC2Y-Atmp] | 6.2 |  | 57%
17 | CN1CCN(CCCNC(=O)[C@H](Cc2ccc(OCc3c(Cl)cccc3Cl)cc2)NC(=O)/C=C/c2c(F)c(F)c(F)c(F)c2F)CC1 [Analog M-1582, F5c-OC2Y-Amp] | 6.7 |  | 60%
18 | COc1ccc2c(c1)c(CC(=O)N[C@@H](Cc1ccc(OCc3c(Cl)cccc3Cl)cc1)C(=O)NCCCN1CCN(C)CC1)c(C)n2C(=O)c1ccc(Cl)cc1 [Analog M-1584, Indo-OC2Y-Amp] | 1.5 |  | 32%
19 | COc1ccc2c(c1)c(CC(=O)N[C@H](Cc1ccc(OCc3c(Cl)cccc3Cl)cc1)C(=O)NC1CC(C)(C)NC(C)(C)C1)c(C)n2C(=O)c1ccc(Cl)cc1 [Analog M-1586, Indo-D-OC2Y-Atmp] | 1.7 |  | 38%
20 | COc1ccc2c(c1)c(CC(=O)NC(Cc1ccc(OCc3c(Cl)cccc3Cl)cc1)C(=O)NC1CN3CCC1CC3)c(C)n2C(=O)c1ccc(Cl)cc1 [Analog M-1588, Indo-OC2Y-(R)-Aqu] | 3.9 |  | 8%
